Test results reported in patent publication US11084795B2, “CFTR regulators and methods of use thereof” (The Regents of the University of California, priority 2015, dated 2021).
Like-named read-outs stand apart in the source and are kept apart here.

Target: human wildtype CFTR (Homo sapiens, UniProt P13569)
Experiment: Fluorescence plate reader assay of iodide influx in FRT cells co-expressing CFTR and YFP halide sensor
[1] = read-out: EC50, variation in the 3-aryl ring, plate reader assay
[2] = read-out: EC50, variation in the N1-substituent, plate reader assay
[3] = read-out: EC50, variation in the quinoxalinone core, plate reader assay

Chain of human wildtype CFTR (P13569 whole entry): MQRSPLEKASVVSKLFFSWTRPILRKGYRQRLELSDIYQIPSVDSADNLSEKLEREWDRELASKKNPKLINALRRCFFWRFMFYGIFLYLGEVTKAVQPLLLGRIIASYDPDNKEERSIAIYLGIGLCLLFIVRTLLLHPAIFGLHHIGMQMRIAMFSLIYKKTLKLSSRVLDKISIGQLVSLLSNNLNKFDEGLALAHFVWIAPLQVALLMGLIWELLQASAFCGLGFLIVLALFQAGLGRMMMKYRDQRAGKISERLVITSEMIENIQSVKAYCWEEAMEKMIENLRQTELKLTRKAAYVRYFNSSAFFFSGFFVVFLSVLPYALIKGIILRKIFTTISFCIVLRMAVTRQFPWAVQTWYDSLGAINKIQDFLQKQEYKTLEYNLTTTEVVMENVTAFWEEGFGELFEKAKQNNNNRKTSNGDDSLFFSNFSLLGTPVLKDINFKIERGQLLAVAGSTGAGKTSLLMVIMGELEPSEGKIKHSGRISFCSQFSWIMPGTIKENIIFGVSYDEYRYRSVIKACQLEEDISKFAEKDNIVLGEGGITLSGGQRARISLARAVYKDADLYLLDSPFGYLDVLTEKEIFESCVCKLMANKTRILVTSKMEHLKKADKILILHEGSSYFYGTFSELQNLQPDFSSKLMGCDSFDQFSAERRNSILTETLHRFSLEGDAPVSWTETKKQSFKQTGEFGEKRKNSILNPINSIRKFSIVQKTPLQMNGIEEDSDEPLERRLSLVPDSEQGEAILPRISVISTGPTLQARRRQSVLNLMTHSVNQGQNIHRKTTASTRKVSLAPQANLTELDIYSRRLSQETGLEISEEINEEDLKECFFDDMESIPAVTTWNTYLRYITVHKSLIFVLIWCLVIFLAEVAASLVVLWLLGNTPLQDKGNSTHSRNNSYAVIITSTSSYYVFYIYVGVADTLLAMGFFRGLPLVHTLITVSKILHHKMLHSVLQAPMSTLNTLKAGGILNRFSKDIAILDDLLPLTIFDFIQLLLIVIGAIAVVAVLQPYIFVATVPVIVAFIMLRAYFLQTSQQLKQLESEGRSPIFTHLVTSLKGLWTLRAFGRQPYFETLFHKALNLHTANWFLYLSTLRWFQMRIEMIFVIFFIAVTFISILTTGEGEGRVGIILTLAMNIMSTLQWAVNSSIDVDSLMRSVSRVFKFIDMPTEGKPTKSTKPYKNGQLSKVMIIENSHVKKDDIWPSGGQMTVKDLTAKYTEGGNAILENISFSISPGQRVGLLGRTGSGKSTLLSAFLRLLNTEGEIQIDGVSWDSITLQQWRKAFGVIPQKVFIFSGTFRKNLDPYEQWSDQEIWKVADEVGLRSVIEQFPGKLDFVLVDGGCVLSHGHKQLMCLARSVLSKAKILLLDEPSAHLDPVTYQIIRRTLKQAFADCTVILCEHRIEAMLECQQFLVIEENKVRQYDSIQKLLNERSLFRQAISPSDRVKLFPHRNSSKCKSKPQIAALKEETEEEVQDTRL

SMILES	EC50	other results
O=c1c(-c2ccc(F)c([N+](=O)[O-])c2)nc2ccccc2n1Cc1ccccc1 [Compound 1i, 1-Benzyl-3-(4-fluoro-3-nitrophenyl)quinoxalin-2(1H)-one]	–	EC50 [1]: 0.69 µM
C=CCn1c(=O)c(-c2cccc([N+](=O)[O-])c2)nc2ccccc21 [Compound 3e, 1-Allyl-3-(3-nitrophenyl)quinoxalin-2(1H)-one]	–	EC50 [2]: 0.055 µM
N#Cc1ccccc1Cn1c(=O)c(-c2cc(I)ccc2N)nc2ccccc21 [CFTRact-J144, 3-(2-Amino-5-iodophenyl)-1-(2-cyanobenzyl)quinoxalin-2(1H)-one]	> 25 µM	–
CCn1c(=O)c(-c2cccc([N+](=O)[O-])c2)nc2ccccc21 [Compound 3c, 1-Ethyl-3-(3-nitrophenyl)quinoxalin-2(1H)-one]	–	EC50 [2]: 0.065 µM
O=c1c(-c2ccc3nonc3c2)nc2ccccc2n1Cc1ccccc1 [Compound 1m, 3-(Benzo[c][1,2,5]oxadiazol-5-yl)-1-benzylquinoxalin-2(1H)-one]	–	EC50 [1]: 0.018 µM
Cc1ccc2c(c1)nc(-c1c(N)cccc1Br)c(=O)n2Cc1ccccc1 [CFTRact-J139, 3-(2-Amino-6-bromophenyl)-1-benzyl-6-methylquinoxalin-2(1H)-one]	0.65 µM	–
Nc1ccc([N+](=O)[O-])cc1-c1nc2cc(F)ccc2n(Cc2ccccc2)c1=O [CFTRact-J105, 3-(2-Amino-5-nitrophenyl)-1-benzyl-6-fluoroquinoxalin-2(1H)-one]	0.53 µM	–
O=c1c(-c2cccc([N+](=O)[O-])c2)nc2c(Cl)cccc2n1Cc1ccccc1 [Compound 2c, 1-Benzyl-5-chloro-3-(3-nitrophenyl)quinoxalin-2(1H)-one]	–	EC50 [3]: 0.11 µM
O=c1c(-c2cccc([N+](=O)[O-])c2)nc2ccccc2n1Cc1ccco1 [Compound 3i, 1-(Furan-2-ylmethyl)-3-(3-nitrophenyl)quinoxalin-2(1H)-one]	–	EC50 [2]: 0.02 µM
O=c1c(-c2cccc([N+](=O)[O-])c2)nc2ccccc2n1Cc1ccccn1 [Compound 3h, 3-(3-Nitrophenyl)-1-(pyridin-2-ylmethyl)quinoxalin-2(1H)-one]	–	EC50 [2]: 0.052 µM
O=c1c(-c2ccc(C(F)(F)F)cc2)nc2ccccc2n1Cc1ccccc1 [Compound 1f, 1-Benzyl-3-(4-(trifluoromethyl)phenyl)quinoxalin-2(1H)-one]	–	EC50 [1]: 1 µM
O=C(O)c1ccc([N+](=O)[O-])c(-c2nc3ccccc3n(Cc3ccccc3)c2=O)c1 [Compound 1b, 3-(4-Benzyl-3-oxo-3,4-dihydroquinoxalin-2-yl)-4-nitrobenzoic acid]	> 10 µM	–
CCCn1c(=O)c(-c2cccc([N+](=O)[O-])c2)nc2ccccc21 [Compound 3d, 1-Propyl-3-(3-nitrophenyl)quinoxalin-2(1H)-one]	–	EC50 [2]: 0.177 µM
Nc1cccc(Br)c1-c1nc2ccccc2n(Cc2ccccc2)c1=O [CFTRact-J142, 3-(2-Amino-6-bromophenyl)-1-benzylquinoxalin-2(1H)-one]	1.5 µM	–
CC(=O)Nc1ccc([N+](=O)[O-])cc1-c1nc2ccccc2n(Cc2ccccc2)c1=O [CFTRact-J109, N-(2-(4-Benzyl-3-oxo-3,4-dihydroquinoxalin-2-yl)-4-nitrophenyl)-acetamide]	1.5 µM	–
O=c1c(-c2ccccc2)nc2ccccc2n1Cc1ccccc1 [Compound 1h, 1-Benzyl-3-phenylquinoxalin-2(1H)-one]	–	EC50 [1]: 5 µM
Nc1ccc([N+](=O)[O-])cc1-c1nc2cc(Br)ccc2n(Cc2ccccc2)c1=O [CFTRact-J136, 3-(2-Amino-5-nitrophenyl)-1-benzyl-6-bromoquinoxalin-2(1H)-one]	0.26 µM	–
O=c1c(-c2cccc([N+](=O)[O-])c2)nc2ccccc2n1Cc1cccc2ccccc12 [Compound 3f, 1-(Naphthalen-1-ylmethyl)-3-(3-nitrophenyl)quinoxalin-2(1H)-one]	–	EC50, variation in the N1-substituent (plate reader assay): EC50 = Inactive
O=c1c(-c2cccc([N+](=O)[O-])c2)nc2ccccc2n1Cc1ccc2ccccc2c1 [Compound 3g, 1-(Naphthalen-2-ylmethyl)-3-(3-nitrophenyl)quinoxalin-2(1H)-one]	–	EC50 [2]: 4.3 µM
Nc1ccc([N+](=O)[O-])cc1-c1nc2cccc3c2n(c1=O)C(c1ccccc1)CO3 (stereo not shown) [Compound 20, 6-(2-Amino-5-nitrophenyl)-3-phenyl-2,3-dihydro-5H-[1,4]oxazino[4,3,2-de]quinoxalin-5-one]	> 10 µM	–
Cn1c(=O)c(-c2cc([N+](=O)[O-])ccc2N)nc2ccccc21 [CFTRact-J052]	–	CFTR activity of commercial analogs relative to CFTRact-J027: greatly reduced activity
Nc1ccc(C(=O)O)cc1-c1nc2ccccc2n(Cc2ccccc2)c1=O [Compound 1k, 4-Amino-3-(4-benzyl-3-oxo-3,4-dihydroquinoxalin-2-yl)benzoic acid]	> 10 µM	–

SMILES	EC50	other results
Nc1ccc(F)cc1-c1nc2ccccc2n(Cc2ccccc2)c1=O [CFTRact-J133, 3-(2-Amino-5-fluorophenyl)-1-benzylquinoxalin-2(1H)-one]	0.79 µM	–
O=c1c(-c2cccc([N+](=O)[O-])c2)nc2cc(Br)ccc2n1Cc1ccccc1 [Compound 2f, 1-Benzyl-6-bromo-3-(3-nitrophenyl)quinoxalin-2(1H)-one]	–	EC50 [3]: 0.063 µM
Nc1ccc([N+](=O)[O-])cc1-c1nc2ccccc2n(Cc2ccccc2Br)c1=O [CFTRact-J104, 3-(2-Amino-5-nitrophenyl)-1-(2-bromobenzyl)quinoxalin-2(1H)-one]	7.3 µM	–
Nc1ccc(I)cc1-c1nc2ccccc2n(Cc2ccccc2[N+](=O)[O-])c1=O [CFTRact-J143, 3-(2-Amino-5-iodophenyl)-1-(2-nitrobenzyl)quinoxalin-2(1H)-one]	> 25 µM	–
O=c1c(-c2cccc([N+](=O)[O-])c2)nc2ccc(Cl)cc2n1Cc1ccccc1 [Compound 2a, 1-Benzyl-7-chloro-3-(3-nitrophenyl)quinoxalin-2(1H)-one]	–	EC50 [3]: 0.76 µM
Fc1ccc2nc3n(Cc4ccccc4)c4ccc(C(F)(F)F)cc4nc-3c2c1 [Compound 22]	> 10 µM	–
Nc1ccc([N+](=O)[O-])cc1-c1nc2ccccc2n(Cc2cccc(Br)c2)c1=O [CFTRact-J103, 3-(2-Amino-5-nitrophenyl)-1-(3-bromobenzyl)quinoxalin-2(1H)-one]	1.2 µM	–
O=c1c(-c2cc(Br)ccc2NCc2ccccc2)nc2ccccc2n1Cc1ccccc1 [CFTRact-J056]	~15 µM	CFTR activity of commercial analogs relative to CFTRact-J027: greatly reduced activity
CC(=O)Nc1ccccc1-c1nc2ccccc2n(CCc2ccccc2)c1=O [CFTRact-J061]	~20 µM	–
CC(=O)Nc1ccc(C)cc1-c1nc2ccccc2n(Cc2ccccc2)c1=O [CFTRact-J060]	> 25 µM	–
CC(=O)Nc1ccccc1-c1nc2ccccc2n(Cc2cccc(Br)c2)c1=O [CFTRact-J059]	~19 µM	–
CC(=O)Nc1ccc([N+](=O)[O-])cc1-c1nc2cccc3c2n(c1=O)CCO3 [Compound 16, N-(4-nitro-2-(5-oxo-2,3-dihydro-5H-[1,4]oxazino[4,3,2-de]quinoxalin-6-yl)phenyl) acetamide]	–	EC50 (read-out: EC50, constrained ring analogs, plate reader assay): 0.82 µM
COC(=O)c1ccc(N)c(-c2nc3ccccc3n(Cc3ccccc3)c2=O)c1 [Compound 1j, Methyl 4-amino-3-(4-benzyl-3-oxo-3,4-dihydroquinoxalin-2-yl)benzoate]	1 µM	EC50 [1]: 0.55 µM
O=c1c(-c2ccc([N+](=O)[O-])cc2)nc2ccccc2n1Cc1ccccc1 [Compound 1e, 1-Benzyl-3-(4-nitrophenyl)quinoxalin-2(1H)-one]	–	EC50 [1]: 1 µM
CC(=O)Nc1ccccc1-c1nc2ccccc2n(Cc2ccccc2)c1=O [CFTRact-J057]	~15 µM	CFTR activity of commercial analogs relative to CFTRact-J027: greatly reduced activity
O=c1c(-c2ccccc2[N+](=O)[O-])nc2ccccc2n1Cc1ccccc1 [Compound 1d, 1-Benzyl-3-(2-nitrophenyl)quinoxalin-2(1H)-one]	–	EC50 [1]: 1 µM
Cc1ccc2c(c1)nc(-c1cc(F)ccc1N)c(=O)n2Cc1ccccc1 [CFTRact-J140, 3-(2-Amino-5-fluorophenyl)-1-benzyl-6-methylquinoxalin-2(1H)-one]	0.7 µM	–
O=c1c(-c2cccc(Br)c2)nc2ccccc2n1Cc1ccccc1 [Compound 1g, 1-Benzyl-3-(3-bromophenyl)quinoxalin-2(1H)-one]	–	EC50 [1]: 0.33 µM
O=c1c(-c2cccc([N+](=O)[O-])c2)nc2ccc(Br)cc2n1Cc1ccccc1 [Compound 2e, 1-Benzyl-7-bromo-3-(3-nitrophenyl)quinoxalin-2(1H)-one]	–	EC50, variation in the quinoxalinone core (plate reader assay): EC50 = Inactive
Cc1ccc2c(c1)nc(-c1cc(I)ccc1N)c(=O)n2Cc1ccccc1 [CFTRact-J141, 3-(2-Amino-5-iodophenyl)-1-benzyl-6-methylquinoxalin-2(1H)-one]	0.47 µM	–
O=c1c(-c2cccc([N+](=O)[O-])c2)nc2cc(Cl)ccc2n1Cc1ccccc1 [Compound 2b, 1-Benzyl-6-chloro-3-(3-nitrophenyl)quinoxalin-2(1H)-one]	–	EC50 [3]: 0.07 µM

Further lines, with some results ahead:

EC50	SMILES	other results
> 10 µM	Cc1cccc2nc(-c3cccc([N+](=O)[O-])c3)c(=O)n(Cc3ccccc3)c12 [Compound 2h, 1-Benzyl-8-methyl-3-(3-nitrophenyl)quinoxalin-2(1H)-one]	–
> 10 µM	O=c1c(-c2cccc([N+](=O)[O-])c2)nc2cc(F)c(F)cc2n1Cc1ccccc1 [Compound 2g, 1-Benzyl-6,7-difluoro-3-(3-nitrophenyl)quinoxalin-2(1H)-one]	–
> 10 µM	O=c1c(-c2cccc([N+](=O)[O-])c2)nc2cc(Cl)c(Cl)cc2n1Cc1ccccc1 [Compound 2d, 1-Benzyl-6,7-dichloro-3-(3-nitrophenyl)quinoxalin-2(1H)-one]	–
> 10 µM	Cn1c(=O)c(-c2cccc([N+](=O)[O-])c2)nc2ccccc21 [Compound 3b, 1-Methyl-3-(3-nitrophenyl)quinoxalin-2(1H)-one]	–
> 10 µM	Cc1cc2nc(-c3cccc([N+](=O)[O-])c3)c(=O)n(Cc3ccccc3)c2cc1C [Compound 2i, 1-Benzyl-6,7-dimethyl-3-(3-nitrophenyl)quinoxalin-2(1H)-one]	–
> 10 µM	O=c1[nH]c2ccccc2nc1-c1cccc([N+](=O)[O-])c1 [Compound 3a, 3-(3-Nitrophenyl)quinoxalin-2(1H)-one]	–
